According to article PMC12090182, “Repurposing of the RIPK1-Selective Benzo[1,4]oxazepin-4-one Scaffold for the Development of a Type III LIMK1/2 Inhibitor” (ACS Chemical Biology, 2025):

Tests used:
BRD4 = BRD4 (Homo sapiens, UniProt O60885); test: DSF selectivity screening; type: binding; details: 10 μM compound
CAMK2A = CAMK2A (Homo sapiens, UniProt Q9UQM7); type: cell-based; details: HEK-293T; 1 μM inhibitor, HEK293T cells
Procedure: (§1) For plate preparation, a transfection mix was prepared in white 384-well small-volume plates (Greiner, cat. no. 784075) by preplating 3 μL of 20 μL/mL FuGene HD (Promega, cat. no. E2311), diluted in an Opti-MEM medium (Gibco, cat. no. 11058-021). One μL of DNA from both DNA vector source plates of the K192 kit was added using an Echo 550 acoustic dispenser (Beckman Coulter). The mix was incubated for 30 min, and 6 μL of HEK293T cells in an Opti-MEM medium was added. The proteins were allowed to express for 20 h. After expression, Tracer K10 was added using the concentrations recommended in the K192 technical manual and a 1 μM inhibitor was added to every second well. […] Five μL of substrate solution was added to every well, and filtered luminescence was measured on a PHERAstar plate reader (BMG Labtech) equipped with a luminescence filter pair (450 nm BP filter (donor) and a 610 nm LP filter (acceptor)). For every kinase, occupancy was calculated and plotted using GraphPad Prism 10 (Table S5).

CDK14 = CDK14 (Homo sapiens, UniProt O94921); type: cell-based; details: HEK-293T; 1 μM inhibitor, HEK293T cells
Procedure: as §1

CDK15 = CDK15 (Homo sapiens, UniProt Q96Q40); type: cell-based; details: HEK-293T; 1 μM inhibitor, HEK293T cells
Procedure: as §1

CDK16 = CDK16 (Homo sapiens, UniProt Q00536); type: cell-based; details: HEK-293T; 1 μM inhibitor, HEK293T cells
Procedure: as §1

CDK2 = CDK2 (Homo sapiens, UniProt P24941); type: cell-based; details: HEK-293T; 1 μM inhibitor, HEK293T cells
Procedure: as §1

CDK20 = CDK20 (Homo sapiens, UniProt Q8IZL9); type: cell-based; details: HEK-293T; 1 μM inhibitor, HEK293T cells
Procedure: as §1

CDKL2 = CDKL2 (Homo sapiens, UniProt Q92772); type: cell-based; details: HEK-293T; 1 μM inhibitor, HEK293T cells
Procedure: as §1

DYRK1A = DYRK1A (Homo sapiens, UniProt Q13627); type: cell-based; details: HEK-293T; 1 μM inhibitor, HEK293T cells
Procedure: as §1

DYRK1B = DYRK1B (Homo sapiens, UniProt Q9Y463); type: cell-based; details: HEK-293T; 1 μM inhibitor, HEK293T cells
Procedure: as §1

EPHA1 = EPHA1 (Homo sapiens, UniProt P21709); type: cell-based; details: HEK-293T; 1 μM inhibitor, HEK293T cells
Procedure: as §1

IRAK3 = IRAK3 (Homo sapiens, UniProt Q9Y616); type: cell-based; details: HEK-293T; 1 μM inhibitor, HEK293T cells
Procedure: as §1

MAP3K11 = MAP3K11 (Homo sapiens, UniProt Q16584); type: cell-based; details: HEK-293T; 1 μM inhibitor, HEK293T cells
Procedure: as §1

MAP3K19 = MAP3K19 (Homo sapiens, UniProt Q56UN5); type: cell-based; details: HEK-293T; 1 μM inhibitor, HEK293T cells
Procedure: as §1

MAP4K2 = MAP4K2 (Homo sapiens, UniProt Q12851); type: cell-based; details: HEK-293T; 1 μM inhibitor, HEK293T cells
Procedure: as §1

MAPK4 = MAPK4 (Homo sapiens, UniProt P31152); type: cell-based; details: HEK-293T; 1 μM inhibitor, HEK293T cells
Procedure: as §1

MAST4 = MAST4 (Homo sapiens, UniProt O15021); type: cell-based; details: HEK-293T; 1 μM inhibitor, HEK293T cells
Procedure: as §1

MET = MET (Homo sapiens, UniProt P08581); type: cell-based; details: HEK-293T; 1 μM inhibitor, HEK293T cells
Procedure: as §1

NEK2 = NEK2 (Homo sapiens, UniProt P51955); type: cell-based; details: HEK-293T; 1 μM inhibitor, HEK293T cells
Procedure: as §1

PRKAA2 = PRKAA2 (Homo sapiens, UniProt P54646); type: cell-based; details: HEK-293T; 1 μM inhibitor, HEK293T cells
Procedure: as §1

RPS6KA4 = RPS6KA4 (Homo sapiens, UniProt O75676); type: cell-based; details: HEK-293T; 1 μM inhibitor, HEK293T cells
Procedure: as §1

SNF1LK2 = SNF1LK2 (Homo sapiens, UniProt Q9H0K1); type: cell-based; details: HEK-293T; 1 μM inhibitor, HEK293T cells
Procedure: as §1

SNRK = SNRK (Homo sapiens, UniProt Q9NRH2); type: cell-based; details: HEK-293T; 1 μM inhibitor, HEK293T cells
Procedure: as §1

STK11 = STK11 (Homo sapiens, UniProt Q15831); type: cell-based; details: HEK-293T; 1 μM inhibitor, HEK293T cells
Procedure: as §1

STK32B = STK32B (Homo sapiens, UniProt Q9NY57); type: cell-based; details: HEK-293T; 1 μM inhibitor, HEK293T cells
Procedure: as §1

STK35 = STK35 (Homo sapiens, UniProt Q8TDR2); type: cell-based; details: HEK-293T; 1 μM inhibitor, HEK293T cells
Procedure: as §1

STK38 = STK38 (Homo sapiens, UniProt Q15208); type: cell-based; details: HEK-293T; 1 μM inhibitor, HEK293T cells
Procedure: as §1

TEC = TEC (Homo sapiens, UniProt P42680); type: cell-based; details: HEK-293T; 1 μM inhibitor, HEK293T cells
Procedure: as §1

TEK = TEK (Homo sapiens, UniProt Q02763); type: cell-based; details: HEK-293T; 1 μM inhibitor, HEK293T cells
Procedure: as §1

TNNI3K = TNNI3K (Homo sapiens, UniProt Q59H18); type: cell-based; details: HEK-293T; 1 μM inhibitor, HEK293T cells
Procedure: as §1

TYRO3 = TYRO3 (Homo sapiens, UniProt Q06418); type: cell-based; details: HEK-293T; 1 μM inhibitor, HEK293T cells
Procedure: as §1

ULK2 = ULK2 (Homo sapiens, UniProt Q8IYT8); type: cell-based; details: HEK-293T; 1 μM inhibitor, HEK293T cells
Procedure: as §1

WEE1 = WEE1 (Homo sapiens, UniProt P30291); type: cell-based; details: HEK-293T; 1 μM inhibitor, HEK293T cells
Procedure: as §1

MAP3K2 = MAP3K2 (Homo sapiens, UniProt Q9Y2U5); test: scanMAX KINOMEscan (Eurofins); type: binding; details: compound concentration 100 nM; Entrez MAP3K2; read-out: Percent Control
Source text: Supplement cb5c00097_si_002.xlsx, sheet "Table S6 (Eurofins Selectivity)" | column: Percent Control

PIK3CA(E545K) = PIK3CA(E545K) (Homo sapiens, UniProt P42336, E545K); test: biochemical; type: binding; details: read-out: Percent Control

STK32B, sequence (Q9NY57 whole entry): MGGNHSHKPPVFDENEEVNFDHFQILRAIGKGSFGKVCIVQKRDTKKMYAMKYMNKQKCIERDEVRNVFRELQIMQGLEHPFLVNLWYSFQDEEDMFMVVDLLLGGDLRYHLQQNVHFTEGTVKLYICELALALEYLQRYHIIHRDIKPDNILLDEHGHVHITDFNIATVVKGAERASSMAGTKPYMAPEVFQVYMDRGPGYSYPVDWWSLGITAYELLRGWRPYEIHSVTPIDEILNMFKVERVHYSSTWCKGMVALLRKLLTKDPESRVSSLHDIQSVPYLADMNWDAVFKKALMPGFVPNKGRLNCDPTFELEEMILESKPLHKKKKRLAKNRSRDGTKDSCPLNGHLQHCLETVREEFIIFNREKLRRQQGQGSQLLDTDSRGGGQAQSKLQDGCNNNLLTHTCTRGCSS
MAP3K11, sequence (Q16584 whole entry): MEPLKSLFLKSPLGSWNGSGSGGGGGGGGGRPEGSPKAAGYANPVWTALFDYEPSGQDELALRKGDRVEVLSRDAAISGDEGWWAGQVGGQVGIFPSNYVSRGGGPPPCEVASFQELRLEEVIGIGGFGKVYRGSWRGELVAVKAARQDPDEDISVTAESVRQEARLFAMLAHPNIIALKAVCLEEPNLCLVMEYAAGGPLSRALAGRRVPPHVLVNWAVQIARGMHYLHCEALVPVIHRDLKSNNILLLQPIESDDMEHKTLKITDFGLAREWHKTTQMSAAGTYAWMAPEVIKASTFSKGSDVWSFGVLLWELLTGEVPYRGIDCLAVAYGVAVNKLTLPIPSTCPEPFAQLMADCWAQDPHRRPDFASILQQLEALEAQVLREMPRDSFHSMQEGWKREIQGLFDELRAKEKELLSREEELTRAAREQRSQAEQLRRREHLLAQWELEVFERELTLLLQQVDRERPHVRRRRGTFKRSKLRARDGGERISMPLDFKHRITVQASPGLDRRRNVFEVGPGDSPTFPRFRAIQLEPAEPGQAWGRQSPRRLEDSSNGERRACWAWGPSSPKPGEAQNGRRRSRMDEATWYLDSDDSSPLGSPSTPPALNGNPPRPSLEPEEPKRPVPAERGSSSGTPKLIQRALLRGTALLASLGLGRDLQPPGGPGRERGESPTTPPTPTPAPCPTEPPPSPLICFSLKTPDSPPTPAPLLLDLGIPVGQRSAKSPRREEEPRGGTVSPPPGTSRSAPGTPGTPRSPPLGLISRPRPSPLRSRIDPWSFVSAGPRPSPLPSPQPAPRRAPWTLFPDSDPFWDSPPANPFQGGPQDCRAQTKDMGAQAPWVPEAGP
CDK15, sequence (Q96Q40 whole entry): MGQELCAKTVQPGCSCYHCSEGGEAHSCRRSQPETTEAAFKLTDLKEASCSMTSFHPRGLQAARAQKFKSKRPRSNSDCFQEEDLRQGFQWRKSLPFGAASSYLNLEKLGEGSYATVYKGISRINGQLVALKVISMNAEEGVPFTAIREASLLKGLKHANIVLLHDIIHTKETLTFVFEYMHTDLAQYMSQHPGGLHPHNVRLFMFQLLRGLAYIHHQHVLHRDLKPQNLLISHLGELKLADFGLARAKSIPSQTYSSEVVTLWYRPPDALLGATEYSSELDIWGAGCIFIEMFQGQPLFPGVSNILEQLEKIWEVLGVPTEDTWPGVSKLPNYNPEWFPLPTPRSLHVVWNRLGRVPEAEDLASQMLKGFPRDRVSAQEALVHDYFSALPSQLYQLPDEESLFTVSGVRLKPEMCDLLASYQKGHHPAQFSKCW
CDK15, sequence (Q8ND76 whole entry, further chain): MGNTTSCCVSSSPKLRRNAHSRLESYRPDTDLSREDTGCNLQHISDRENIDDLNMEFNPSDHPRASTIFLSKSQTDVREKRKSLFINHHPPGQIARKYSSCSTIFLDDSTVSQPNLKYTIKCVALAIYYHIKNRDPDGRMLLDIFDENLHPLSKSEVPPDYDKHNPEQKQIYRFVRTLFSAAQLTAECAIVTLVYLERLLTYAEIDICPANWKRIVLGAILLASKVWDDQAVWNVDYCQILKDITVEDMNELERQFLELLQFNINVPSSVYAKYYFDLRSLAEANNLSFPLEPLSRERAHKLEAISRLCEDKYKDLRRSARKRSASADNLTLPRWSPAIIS
TYRO3, sequence (Q06418 41-890): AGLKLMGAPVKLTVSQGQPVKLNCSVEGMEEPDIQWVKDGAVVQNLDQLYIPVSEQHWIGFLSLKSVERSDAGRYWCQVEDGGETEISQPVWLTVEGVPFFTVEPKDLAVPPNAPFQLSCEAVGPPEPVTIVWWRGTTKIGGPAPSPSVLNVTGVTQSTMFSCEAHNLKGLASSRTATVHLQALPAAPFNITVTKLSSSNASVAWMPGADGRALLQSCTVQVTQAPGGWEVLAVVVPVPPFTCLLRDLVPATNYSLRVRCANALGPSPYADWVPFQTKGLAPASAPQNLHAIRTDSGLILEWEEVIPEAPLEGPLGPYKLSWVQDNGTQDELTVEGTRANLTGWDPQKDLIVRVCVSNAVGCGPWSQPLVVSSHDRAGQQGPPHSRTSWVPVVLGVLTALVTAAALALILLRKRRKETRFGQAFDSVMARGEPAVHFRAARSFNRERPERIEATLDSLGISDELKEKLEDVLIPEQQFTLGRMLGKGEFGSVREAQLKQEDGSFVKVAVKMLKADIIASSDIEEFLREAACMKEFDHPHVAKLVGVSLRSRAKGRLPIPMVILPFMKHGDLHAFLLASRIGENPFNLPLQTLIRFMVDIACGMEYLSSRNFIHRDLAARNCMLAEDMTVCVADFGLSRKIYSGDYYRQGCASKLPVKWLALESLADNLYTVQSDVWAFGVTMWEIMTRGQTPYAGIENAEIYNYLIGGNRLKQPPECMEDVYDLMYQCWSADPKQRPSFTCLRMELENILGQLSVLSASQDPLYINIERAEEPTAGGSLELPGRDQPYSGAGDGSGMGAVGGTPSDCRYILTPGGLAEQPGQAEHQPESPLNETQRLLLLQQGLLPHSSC
MAP3K19, sequence (Q56UN5 whole entry): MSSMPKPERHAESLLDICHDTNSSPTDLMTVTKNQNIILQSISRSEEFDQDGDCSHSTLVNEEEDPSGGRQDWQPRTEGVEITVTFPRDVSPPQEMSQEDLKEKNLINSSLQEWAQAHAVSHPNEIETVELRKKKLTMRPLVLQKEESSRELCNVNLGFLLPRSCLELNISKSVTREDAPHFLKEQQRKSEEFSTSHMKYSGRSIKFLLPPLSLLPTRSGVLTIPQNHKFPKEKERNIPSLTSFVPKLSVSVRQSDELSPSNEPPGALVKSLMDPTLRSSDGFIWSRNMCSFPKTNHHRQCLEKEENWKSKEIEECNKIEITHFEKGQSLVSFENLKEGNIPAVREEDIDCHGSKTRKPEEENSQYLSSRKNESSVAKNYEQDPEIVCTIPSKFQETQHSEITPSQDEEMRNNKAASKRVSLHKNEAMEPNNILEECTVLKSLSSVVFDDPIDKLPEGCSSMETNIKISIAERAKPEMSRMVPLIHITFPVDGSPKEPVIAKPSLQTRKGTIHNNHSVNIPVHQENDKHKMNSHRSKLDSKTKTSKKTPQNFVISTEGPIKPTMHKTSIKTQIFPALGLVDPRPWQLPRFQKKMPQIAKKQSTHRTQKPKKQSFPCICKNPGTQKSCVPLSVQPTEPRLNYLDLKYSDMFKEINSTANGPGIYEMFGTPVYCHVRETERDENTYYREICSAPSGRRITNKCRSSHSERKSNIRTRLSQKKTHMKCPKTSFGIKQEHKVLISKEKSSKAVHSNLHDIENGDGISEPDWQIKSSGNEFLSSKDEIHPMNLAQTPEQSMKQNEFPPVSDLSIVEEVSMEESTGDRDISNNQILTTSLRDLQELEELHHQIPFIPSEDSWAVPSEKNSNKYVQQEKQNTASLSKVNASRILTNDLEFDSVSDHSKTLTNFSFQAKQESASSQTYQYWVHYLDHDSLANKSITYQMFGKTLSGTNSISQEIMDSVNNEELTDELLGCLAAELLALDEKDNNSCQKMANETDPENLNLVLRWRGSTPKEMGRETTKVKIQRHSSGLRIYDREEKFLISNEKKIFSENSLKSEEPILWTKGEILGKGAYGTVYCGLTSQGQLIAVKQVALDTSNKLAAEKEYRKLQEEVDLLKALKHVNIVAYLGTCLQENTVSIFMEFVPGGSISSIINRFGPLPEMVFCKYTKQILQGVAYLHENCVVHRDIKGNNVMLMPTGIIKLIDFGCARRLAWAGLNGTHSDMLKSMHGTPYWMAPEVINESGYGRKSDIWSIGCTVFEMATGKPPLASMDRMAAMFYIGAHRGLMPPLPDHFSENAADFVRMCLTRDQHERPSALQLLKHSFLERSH
NEK2, sequence (P51955 whole entry): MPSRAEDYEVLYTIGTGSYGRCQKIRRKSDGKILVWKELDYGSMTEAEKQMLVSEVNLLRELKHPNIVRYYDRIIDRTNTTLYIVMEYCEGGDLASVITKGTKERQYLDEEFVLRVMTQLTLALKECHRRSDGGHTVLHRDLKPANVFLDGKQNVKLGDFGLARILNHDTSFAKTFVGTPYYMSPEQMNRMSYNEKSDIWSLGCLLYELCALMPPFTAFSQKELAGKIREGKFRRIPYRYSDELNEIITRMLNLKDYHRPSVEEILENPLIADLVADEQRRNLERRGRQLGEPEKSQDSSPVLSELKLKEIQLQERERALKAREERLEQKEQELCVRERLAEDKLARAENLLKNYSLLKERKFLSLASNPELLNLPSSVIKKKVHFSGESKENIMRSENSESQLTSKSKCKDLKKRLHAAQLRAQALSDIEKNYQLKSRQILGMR

SMILES: CN1C(=O)[C@@H](N2CCc3c(nn(Cc4ccccc4)c3C(N)=O)C2=O)COc2cc(Cl)ccc21 [Compound 10, (S)-2-benzyl-6-(8-chloro-5-methyl-4-oxo-2,3,4,5-tetrahydrobenzo[b][1,4]oxazepin-3-yl)-7-oxo-4,5,6,7-tetrahydro-2H-pyrazolo[3,4-c]pyridine-3-carboxamide]
- ΔTm at 10 µM (BRD4): -1.4 °C
- receptor occupancy at 1 µM (CAMK2A): -6.57%
- receptor occupancy at 1 µM (CDK14): 4.07%
- receptor occupancy at 1 µM (CDK15): -12.8%
- receptor occupancy at 1 µM (CDK16): -2.19%
- receptor occupancy at 1 µM (CDK2): 6.33%
- receptor occupancy at 1 µM (CDK20): 0.735%
- receptor occupancy at 1 µM (CDKL2): -3.58%
- receptor occupancy at 1 µM (DYRK1A): -1.01%
- receptor occupancy at 1 µM (DYRK1B): -4.33%
- receptor occupancy at 1 µM (EPHA1): 2.07%
- receptor occupancy at 1 µM (IRAK3): -5.37%
- receptor occupancy at 1 µM (MAP3K11): -27.3%
- receptor occupancy at 1 µM (MAP3K19): 10.7%
- receptor occupancy at 1 µM (MAP4K2): -0.43%
- receptor occupancy at 1 µM (MAPK4): -10.7%
- receptor occupancy at 1 µM (MAST4): -4.29%
- receptor occupancy at 1 µM (MET): 4.93%
- receptor occupancy at 1 µM (NEK2): -8.89%
- receptor occupancy at 1 µM (PRKAA2): 2.71%
- receptor occupancy at 1 µM (RPS6KA4): 7.5%
- receptor occupancy at 1 µM (SNF1LK2): 4.84%
- receptor occupancy at 1 µM (SNRK): 7.74%
- receptor occupancy at 1 µM (STK11): -4.45%
- receptor occupancy at 1 µM (STK32B): -4.21%
- receptor occupancy at 1 µM (STK35): 1.56%
- receptor occupancy at 1 µM (STK38): 4.93%
- receptor occupancy at 1 µM (TEC): -0.614%
- receptor occupancy at 1 µM (TEK): 9.13%
- receptor occupancy at 1 µM (TNNI3K): -0.0649%
- receptor occupancy at 1 µM (TYRO3): -9.33%
- receptor occupancy at 1 µM (ULK2): 2.12%
- receptor occupancy at 1 µM (WEE1): -7.33%
- remaining binding at 0.1 µM (MAP3K2): 100%
- remaining activity at 1 µM (PIK3CA(E545K)): 97%
